Source: patent US4638047A, “Enzyme inhibition” (priority 1983, dated 1987)
Read-outs that look alike come from different tables or passages of the source. Residues, ends and D or L forms follow the SMILES beside them.

What was measured:
[1] = molecular target: T1, human thrombin (Homo sapiens, UniProt P00734); assay: Inhibition of human thrombin hydrolysing the chromogenic substrate S-2238 (Ki by Dixon plot); type: biochemical
T1 construct: forms a lipoprotein complex with prothrombin (factor II) and cleaves it to form thrombin (factor IIa) itself
Procedure: (a) Inhibition of human thrombin hydrolysing the chromogenic substrate S-2238 (for details of the method, see M. F. Scully and V. V. Kakkar, Clin. Chim. Acta 1977.79.595). Series of measurements were carried out using a number of different inhibitor concentrations and at least two different substrate concentrations. The inhibitory constant Ki was determined graphically, using a Dixon plot (M. Dixon, Biochem. J. 1953.55.170)

[2] = rabbit
[3] = In vivo half life in plasma

Compound | Ki [1] | in vivo half life in plasma [2] | in vivo half life in plasma [3]
CCNC(=O)[C@@H]1CCCN1C(=O)CCC(=O)[C@H](CCCNC(=N)N)NC(=O)[C@@H]1CCCN1C(=O)[C@H](N)Cc1ccccc1 [Example H-179] | 6 µM | 18 min | –
heparin | – | – | 15 min
CCNC(=O)[C@@H]1CCCN1C(=O)CCC(=O)[C@@H](CCCNC(=N)N)NC(=O)[C@@H]1CCCN1C(=O)[C@@H](Cc1ccccc1)NC(=O)OC(C)(C)C [Example H-170] | 68 µM | – | –
CC(C)(C)OC(=O)N[C@H](Cc1ccccc1)C(=O)N1CCC[C@H]1C(=O)N[C@@H](CCCNC(=N)N)CNCC(=O)N1CCC[C@H]1C(=O)O [Example H-172] | 112 µM | – | –
CCNC(=O)[C@@H](NC(=O)[C@H](CCCNC(=N)N)NC(=O)[C@@H]1CCCN1C(=O)CCC(=O)[C@H](CCCNC(=N)N)NC(=O)[C@@H]1CCCN1C(=O)[C@H](N)Cc1ccccc1)C(C)C [Example H-200] (HELM PEPTIDE1{[dF].P.[N=C(N)NCCC[C@H](N[*:1])C(=O)CCC(=O)[*:2]].P.R.V.[CCN[*:1]]}$$$$V2.0) | 3 µM | – | –
